System: leaves of monocotyledonous crop plants such as corn and dicotyledonous crop plants such as apples
Assay: Leaf penetration of water-soluble leaf fertilisers such as urea
Type: in vivo
Conditions: urea 0.1 to 2% in spray liquor, in presence of 0.05 to 1% of one of the alkyl ether sulfates according to the invention; within a number of days
Text: In the case of foliar application of urea (0.1 to 2% in the spray liqour) to leaves of monocotyledonous crop plants such as corn and also to dicotyledonous crop plants such as apples, the rate of foliar uptake was increased within a number of days by a factor of at least two in the presence of 0.05 to 1% of one of the alkyl ether sulfates according to the invention.

NC(N)=O [urea]
factor of increase of rate of foliar uptake: at least two
